Results reported in patent US10004701B2, “Methods and compositions for treating infection” (UNIVERSITY OF ROCHESTER, priority 2012, dated 2018).
Structures can show the parent of a compound that is named as a salt. Where two headings read alike, the source gives them in different places.

Experiments:
Assay in all cases: AK assay 384-well format, Prestwick library screening
[1] = system: E. faecium; type: cell-based, Enterococcus faecium; settings: 50 μM final drug concentration; for fold induction at 50 µM: Enterococcus faecium, 3 h
[2] = system: S. aureus strain USA300-0114; type: cell-based, Staphylococcus aureus; settings: 50 μM final drug concentration; for fold induction at 50 µM: Staphylococcus aureus, USA300, 3 h
[3] = system: K. pneumoniae; type: cell-based, Klebsiella pneumoniae; settings: 50 μM final drug concentration; for fold induction at 50 µM: Klebsiella pneumoniae, 3 h
[4] = system: A. baumannii strain 98-37-09; type: cell-based, Acinetobacter baumannii; settings: 50 μM final drug concentration; for fold induction at 50 µM: Acinetobacter baumannii, 983709, 3 h
[5] = system: P. aeruginosa; type: cell-based, Pseudomonas aeruginosa; settings: 50 μM final drug concentration; for fold induction at 50 µM: Pseudomonas aeruginosa, 3 h
[6] = system: E. cloacae; type: cell-based, Enterobacter cloacae; settings: 50 μM final drug concentration; for fold induction at 50 µM: Enterobacter cloacae, 3 h
[7] = system: E. coli; type: cell-based, Escherichia coli; settings: 50 μM final drug concentration; for fold induction at 50 µM: Escherichia coli, 3 h
[8] = planktonic, […], read-out: AK-based Prestwick Library Screening Results, E. faecium (fold increase in extracellular AK activity)
[9] = planktonic, […], read-out: AK-based Prestwick Library Screening Results, S. aureus (fold increase in extracellular AK activity)
[10] = planktonic, […], read-out: AK-based Prestwick Library Screening Results, K. pneumoniae (fold increase in extracellular AK activity)
[11] = planktonic, […], read-out: AK-based Prestwick Library Screening Results, A. baumannii (fold increase in extracellular AK activity)
[12] = planktonic, […], read-out: AK-based Prestwick Library Screening Results, P. aeruginosa (fold increase in extracellular AK activity)
[13] = planktonic, […], read-out: AK-based Prestwick Library Screening Results, E. cloacae (fold increase in extracellular AK activity)
[14] = planktonic, […], read-out: AK-based Prestwick Library Screening Results, E. coli (fold increase in extracellular AK activity)
[15] = cutoff for positive-scoring molecules 3-fold increase
[16] = planktonic E. faecium, cutoff for positive-scoring molecules 3-fold increase, read-out: AK-based Prestwick Library Screening Results, E. faecium (increase in extracellular AK activity)
[17] = planktonic S. aureus, cutoff for positive-scoring molecules 3-fold increase, read-out: AK-based Prestwick Library Screening Results, S. aureus (increase in extracellular AK activity)
[18] = planktonic K. pneumoniae, cutoff for positive-scoring molecules 3-fold increase, read-out: AK-based Prestwick Library Screening Results, K. pneumoniae (increase in extracellular AK activity)
[19] = planktonic A. baumannii, cutoff for positive-scoring molecules 3-fold increase, read-out: AK-based Prestwick Library Screening Results, A. baumannii (increase in extracellular AK activity)
[20] = planktonic P. aeruginosa, cutoff for positive-scoring molecules 3-fold increase, read-out: AK-based Prestwick Library Screening Results, P. aeruginosa (increase in extracellular AK activity)
[21] = planktonic E. cloacae, cutoff for positive-scoring molecules 3-fold increase, read-out: AK-based Prestwick Library Screening Results, E. cloacae (increase in extracellular AK activity)
[22] = planktonic E. coli, cutoff for positive-scoring molecules 3-fold increase, read-out: AK-based Prestwick Library Screening Results, E. coli (increase in extracellular AK activity)
[23] = 384-well format, cutoff for positive-scoring molecules 3-fold increase, read-out: AK-based Prestwick Library Screening Results, E. faecium (increase in extracellular AK activity)
[24] = 384-well format, cutoff for positive-scoring molecules 3-fold increase, read-out: AK-based Prestwick Library Screening Results, S. aureus (increase in extracellular AK activity)
[25] = 384-well format, cutoff for positive-scoring molecules 3-fold increase, read-out: AK-based Prestwick Library Screening Results, K. pneumoniae (increase in extracellular AK activity)
[26] = 384-well format, cutoff for positive-scoring molecules 3-fold increase, read-out: AK-based Prestwick Library Screening Results, A. baumannii (increase in extracellular AK activity)
[27] = 384-well format, cutoff for positive-scoring molecules 3-fold increase, read-out: AK-based Prestwick Library Screening Results, P. aeruginosa (increase in extracellular AK activity)
[28] = 384-well format, cutoff for positive-scoring molecules 3-fold increase, read-out: AK-based Prestwick Library Screening Results, E. cloacae (increase in extracellular AK activity)
[29] = 384-well format, cutoff for positive-scoring molecules 3-fold increase, read-out: AK-based Prestwick Library Screening Results, E. coli (increase in extracellular AK activity)

`O=S(=O)(O)c1cc(O)ccc1O` [Ethamsylate] was tested, and the fold induction at 50 µM ([1]; planktonic E. faecium, […], read-out: AK-based Prestwick library screening result, E. faecium (fold increase in extracellular AK activity)) was 0.9, the fold induction at 50 µM ([2]; planktonic S. aureus, […], read-out: AK-based Prestwick library screening result, S. aureus (fold increase in extracellular AK activity)) was 1 and the fold induction at 50 µM ([3]; planktonic K. pneumoniae, […], read-out: AK-based Prestwick library screening result, K. pneumoniae (fold increase in extracellular AK activity)) was 1.1. The fold induction at 50 µM ([4]; planktonic A. baumannii, […], read-out: AK-based Prestwick library screening result, A. baumannii (fold increase in extracellular AK activity)) was 1.2, the fold induction at 50 µM ([5]; planktonic P. aeruginosa, […], read-out: AK-based Prestwick library screening result, P. aeruginosa (fold increase in extracellular AK activity)) was 1 and the fold induction at 50 µM ([6]; planktonic E. cloacae, […], read-out: AK-based Prestwick library screening result, E. cloacae (fold increase in extracellular AK activity)) was 0.8. The fold induction at 50 µM ([7]; planktonic E. coli, […], read-out: AK-based Prestwick library screening result, E. coli (fold increase in extracellular AK activity)) was 1.2.

Molecule `COc1c(O[C@@H]2O[C@H](CO)[C@@H](O)[C@H](O)[C@H]2O)cc2c(c1OC)-c1ccc(SC)c(=O)cc1[C@@H](NC(C)=O)CC2` [Thiocolchicoside] has a fold induction at 50 µM [1, 8] of 1.1, a fold induction at 50 µM [2, 9] of 1.2 and a fold induction at 50 µM [3, 10] of 0.8. For the same molecule, the fold induction at 50 µM [4, 11] was 0.9, the fold induction at 50 µM [5, 12] was 1 and the fold induction at 50 µM [6, 13] was 1.7. It also gave a fold induction at 50 µM [7, 14] of 1.

Tyloxapol was tested, and the “AK-based Prestwick Library Screening Results, E. faecium (fold increase in extracellular AK activity)” value [1, 15] was 1.0, the “AK-based Prestwick Library Screening Results, S. aureus (fold increase in extracellular AK activity)” value [2, 15] was 1.4 and the “AK-based Prestwick Library Screening Results, K. pneumoniae (fold increase in extracellular AK activity)” value [3, 15] was 1.5. For the same molecule, the “AK-based Prestwick Library Screening Results, A. baumannii (fold increase in extracellular AK activity)” value [4, 15] was 1.3, the “AK-based Prestwick Library Screening Results, P. aeruginosa (fold increase in extracellular AK activity)” value [5, 15] was 1.2 and the “AK-based Prestwick Library Screening Results, E. cloacae (fold increase in extracellular AK activity)” value [6, 15] was 1.2. For the same molecule, the “AK-based Prestwick Library Screening Results, E. coli (fold increase in extracellular AK activity)” value ([7]; […]) was 1.4.

`O=C(O)COCCN1CCN(C(c2ccccc2)c2ccc(Cl)cc2)CC1` (stereo not drawn) [Cetirizine dihydrochloride] was tested, and the fold induction at 50 µM [1, 16] was 0.9, the fold induction at 50 µM [2, 17] was 0.7 and the fold induction at 50 µM [3, 18] was 0.7. It also gave a fold induction at 50 µM [4, 19] of 1.1, a fold induction at 50 µM [5, 20] of 0.9 and a fold induction at 50 µM [6, 21] of 0.9. For the same molecule, the fold induction at 50 µM [7, 22] was 0.9.

Molecule `CC(N/C(=N\C#N)Nc1ccncc1)C(C)(C)C` (stereo not drawn) [Pinacidil] has a fold induction at 50 µM [1, 23] of 0.9, a fold induction at 50 µM [2, 24] of 0.5 and a fold induction at 50 µM [3, 25] of 0.5. For the same molecule, the fold induction at 50 µM [4, 26] was 0.5, the fold induction at 50 µM [5, 27] was 0.5 and the fold induction at 50 µM [6, 28] was 0.6. The fold induction at 50 µM [7, 29] was 0.5.

For `CC1=CC(=O)C2=C(C)C[C@H](O)[C@@H]3[C@H](OC(=O)[C@H]3C)[C@H]12` [Austricine hydrate], the fold induction at 50 µM [1, 8] was 1.1, the fold induction at 50 µM [2, 9] was 1.2 and the fold induction at 50 µM [3, 10] was 1. The fold induction at 50 µM [4, 11] was 1, the fold induction at 50 µM [5, 12] was 1.1 and the fold induction at 50 µM [6, 13] was 1.3. The fold induction at 50 µM [7, 14] was 1.2.

`COc1c2c(nc3ccccc13)OC(C(C)(O)CO)C2` (stereo not drawn) [Dubinidine] was tested, and the “AK-based Prestwick library screening result, E. faecium (fold increase in extracellular AK activity)” value ([1]; planktonic E. faecium, positive cutoff 3-fold increase) was 1.0, the “AK-based Prestwick library screening result, S. aureus (fold increase in extracellular AK activity)” value ([2]; planktonic S. aureus, positive cutoff 3-fold increase) was 2.4 and the “AK-based Prestwick library screening result, K. pneumoniae (fold increase in extracellular AK activity)” value ([3]; planktonic K. pneumoniae, positive cutoff 3-fold increase) was 0.9. The “AK-based Prestwick library screening result, A. baumannii (fold increase in extracellular AK activity)” value ([4]; planktonic A. baumannii, positive cutoff 3-fold increase) was 1.1, the “AK-based Prestwick library screening result, P. aeruginosa (fold increase in extracellular AK activity)” value ([5]; planktonic P. aeruginosa, positive cutoff 3-fold increase) was 1.0 and the “AK-based Prestwick library screening result, E. cloacae (fold increase in extracellular AK activity)” value ([6]; planktonic E. cloacae, positive cutoff 3-fold increase) was 1.3. The “AK-based Prestwick library screening result, E. coli (fold increase in extracellular AK activity)” value ([7]; planktonic E. coli, […]) was 1.4.

For `Clc1ccccc1C(c1ccccc1)(c1ccccc1)n1ccnc1` [Clotrimazole], the fold induction at 50 µM [1, 23] was 1.3, the fold induction at 50 µM [2, 24] was 2 and the fold induction at 50 µM [3, 25] was 1. It also gave a fold induction at 50 µM [4, 26] of 3.3, a fold induction at 50 µM [5, 27] of 1 and a fold induction at 50 µM [6, 28] of 1. It also gave a fold induction at 50 µM [7, 29] of 1.

In the case of S(−)Eticlopride hydrochloride, the “AK-based Prestwick Library Screening Results, E. faecium (fold increase in extracellular AK activity)” value [1, 15] is reported as 1.0, the “AK-based Prestwick Library Screening Results, S. aureus (fold increase in extracellular AK activity)” value [2, 15] is reported as 1.6 and the “AK-based Prestwick Library Screening Results, K. pneumoniae (fold increase in extracellular AK activity)” value [3, 15] is reported as 1.1. For the same molecule, the “AK-based Prestwick Library Screening Results, A. baumannii (fold increase in extracellular AK activity)” value [4, 15] was 1.0, the “AK-based Prestwick Library Screening Results, P. aeruginosa (fold increase in extracellular AK activity)” value [5, 15] was 1.3 and the “AK-based Prestwick Library Screening Results, E. cloacae (fold increase in extracellular AK activity)” value [6, 15] was 1.8. The “AK-based Prestwick Library Screening Results, E. coli (fold increase in extracellular AK activity)” value [7, 15] was 0.9.

For `OC(CCCN1CCCCC1)(c1ccccc1)c1ccccc1` [Diphenidol hydrochloride], the fold induction at 50 µM [1, 23] was 1, the fold induction at 50 µM [2, 24] was 0.7 and the fold induction at 50 µM [3, 25] was 0.7. It also gave a fold induction at 50 µM [4, 26] of 0.7, a fold induction at 50 µM [5, 27] of 0.8 and a fold induction at 50 µM [6, 28] of 0.8. It also gave a fold induction at 50 µM [7, 29] of 0.8.

Molecule `CC1(C)[C@@H](OC(=O)CCC(=O)O)CC[C@]2(C)[C@H]3C(=O)C=C4[C@@H]5C[C@@](C)(C(=O)O)CC[C@]5(C)CC[C@@]4(C)[C@]3(C)CC[C@@H]12` [Carbenoxolone disodium salt] has a fold induction at 50 µM ([1]; planktonic, cutoff for positive-scoring molecules 3-fold increase, read-out: AK-based Prestwick Library Screening Results, E. faecium (fold increase in extracellular AK activity)) of 0.9, a fold induction at 50 µM ([2]; planktonic, cutoff for positive-scoring molecules 3-fold increase, read-out: AK-based Prestwick Library Screening Results, S. aureus (fold increase in extracellular AK activity)) of 1.6 and a fold induction at 50 µM ([3]; planktonic, cutoff for positive-scoring molecules 3-fold increase, read-out: AK-based Prestwick Library Screening Results, K. pneumoniae (fold increase in extracellular AK activity)) of 0.7. For the same molecule, the fold induction at 50 µM ([4]; planktonic, cutoff for positive-scoring molecules 3-fold increase, read-out: AK-based Prestwick Library Screening Results, A. baumannii (fold increase in extracellular AK activity)) was 1.1, the fold induction at 50 µM ([5]; planktonic, cutoff for positive-scoring molecules 3-fold increase, read-out: AK-based Prestwick Library Screening Results, P. aeruginosa (fold increase in extracellular AK activity)) was 0.9 and the fold induction at 50 µM ([6]; planktonic, cutoff for positive-scoring molecules 3-fold increase, read-out: AK-based Prestwick Library Screening Results, E. cloacae (fold increase in extracellular AK activity)) was 1.4. It also gave a fold induction at 50 µM ([7]; planktonic, cutoff for positive-scoring molecules 3-fold increase, read-out: AK-based Prestwick Library Screening Results, E. coli (fold increase in extracellular AK activity)) of 0.8.

`CC(C)(C)NCC(O)COc1cccc2c1CCC(=O)N2` (stereo not drawn) [Carteolol hydrochloride] was tested, and the fold induction at 50 µM [1, 16] was 1, the fold induction at 50 µM [2, 17] was 1.1 and the fold induction at 50 µM [3, 18] was 0.8. It also gave a fold induction at 50 µM [4, 19] of 1, a fold induction at 50 µM [5, 20] of 1.1 and a fold induction at 50 µM [6, 21] of 1.1. The fold induction at 50 µM [7, 22] was 1.2.
